Marks after values point to notes of the source that are not given here.
Legend:
[1] = test system: sows (PIC) and their piglets; assay: Litter performance (Example 10); assay type: in vivo, pig; conditions: for Mortality: piglets until weaning
Procedure: Testing was performed on sows (primiparous and multiparous) of the same type of crossing (PIC). The trial comprised 52 sows in a system of continuous farrowing. Each group was consist of 13 animals. The trial ran from day 1 of pregnancy to remating in the next cycle.
Each group was fed with complete diets for pregnant sows (0-90 d) and for lactation sows (90 d of gestation-weaning) with different inclusion of vitamin E and tested product (see TABLE 43A) and lactation diets (see TABLE 43B)
(§1) The performance following criteria were monitored during the trial: (i) Sows response criteria (actual parity, farrowing rate, culled sows—number and reasons, wean-to-mating interval, farrowing rate in the next cycle); (ii) litter response criteria (number of piglets, total, alive, stillborn, mummies; weight of piglets and litters; survival). The following biochemical (blood) criteria were monitored during the trial for the sows (mating, farrowing and weaning), piglets 21st day: (i) glutathione peroxidase (GPx) activity; (ii) superoxide dismutase (SOD) activity; (iii) total antioxidant status (TAS); (iv) vitamin E content; (v) vitamin A content.

sows and piglets = assay: Superoxide dismutase (SOD) activity in serum of sows and piglets (Example 10); assay type: in vivo, pig; conditions: for Activity of superoxide dismutase (SOD) in serum of piglets: piglets at 21 days
Text: as §1
To determine the oxidative status, the blood samples were collected from sows and piglets into tubes with lithium anticoagulant—received whole blood for analysis. At the same time blood samples were taken for blood clot. They were centrifuged (1500 rpm, 15 Temp. 4° C.) and obtained serum was pipetted into separate tubes.
In studies of oxidative status of sows and piglets were used suitable to each of the indicators, the reagent kits from Sigma-Aldrich. Determination was made in accordance with the descriptions of the rules and procedures specified by the manufacturer.
The content of the TAS (total antioxidant status) were determined using the Antioxidant assay kit (Cat. No CS0790), the activity of SOD (superoxide dismutase) was determined using SOD determination kit 19160, the activity of GPx (glutathione Peroxide assai Cellular Activity Kit) Cat. No CGP1. The content of vitamins A and E by McMurray and Blanchflower 1979 (Journal of Chromatography 178, 525-531.). TAS
Serum samples (20 ul) in duplicate were incubated at 37° C. for 20 minutes with the working solution WST (tetrazolium sodium salt, 2-(4-lodophenyl)-3 (4-nitrophenyl0-5-(2,4-disulfophenyl) 2H-tetrazolium, monosodium salt) (200 pl) and the enzyme working solution (20 pl). Simultaneously sample blanks were performed (two reagents, and blank for each sample) and a calibration curve based on serial dilutions of SOD in a range of 200 to 0,001 U/ml. Absorbance of the blank, standards and test samples read on a spectrophotometer at a wavelength of 450 nm. WST produces a water-soluble formazan dye upon reduction with a superoxide anion. The rate of the reduction with O2 are linearly related to the xanthine oxidase (XO) activity. The SOD activity is measured as the degree of blocking the formation of the formazan dye.

[2] = test system: egg yolk of Ross 308 breeders; assay: Egg yolk ORAC and vitamin E analysis (Example 4); assay type: in vivo, chicken
Text: Eggs were shipped to University Gent, Belgium, for ORAC and vitamin E analysis on the yolk. The method used for the determination of polyphenols was the Folin-Ciocalteu Methodology which is described in the European Pharmacopoeia, using a spectrophotometry UV-visible. For the ORAC analysis the method was used as described by Ou et al. “Development and validation of an improved oxygen radical absorbance capacity assay using fluorescein as the fluorescent probe,” Journal of Agricultural and Food Chemistry 49: 4619-4626, (2001) and Huang et al. “High-throughput assay of oxygen radical absorbance capacity (ORAC) using a multichannel liquid handling system coupled with a microplate fluorescence reader in 96-well format,” Journal of Agricultural and Food Chemistry 50: 4437-4444, (2002).

[3] = test system: Cobb500 fast-feathering male broilers; assay: Grow out of offspring, performance till slaughter age (Example 3); assay type: in vivo, chicken
[4] = 1st day, Group 2: vitamin E 50/75 mg/kg sow diet
[5] = 1st day, Group 3: vitamin E 100/150 mg/kg sow diet
[6] = Weaning, Group 2: vitamin E 50/75 mg/kg sow diet
[7] = Weaning, Group 3: vitamin E 100/150 mg/kg sow diet
[8] = Group 2: vitamin E 50/75 mg/kg sow diet
[9] = Group 3: vitamin E 100/150 mg/kg sow diet

In the case of `Cc1c(C)c2c(c(C)c1O)CCC(C)(CCCC(C)CCCC(C)CCCC(C)C)O2` (racemic) [Vitamin E, DL-α-tocopherol], the Litter weight [1, 4] is reported as 18.50^a kg, the “Number of piglets per litter, Born alive” value [1, 4] is reported as 12.82 and the “Number of piglets per litter, Mummies” value [1, 4] is reported as 0.18. For the same compound, the “Number of piglets per litter, Stillborn” value [1, 4] was 1.36, the “Number of piglets per litter, Weak” value [1, 4] was 0.36 and the Piglet weight [1, 4] was 1.44 kg. For the same compound, the Litter weight [1, 5] was 19.07^a kg, the “Number of piglets per litter, Born alive” value [1, 5] was 13.18 and the “Number of piglets per litter, Mummies” value [1, 5] was 0.20. The “Number of piglets per litter, Stillborn” value [1, 5] was 1.09, the “Number of piglets per litter, Weak” value [1, 5] was 0.40 and the Piglet weight [1, 5] was 1.45 kg. The Litter weight [1, 6] was 83.96^b kg, the Piglet weight [1, 6] was 7.16 kg and the “Weaning Number of piglets per litter” value [1, 6] was 11.73. For the same compound, the Litter weight [1, 7] was 84.33^b kg, the Piglet weight [1, 7] was 7.31 kg and the “Weaning Number of piglets per litter” value [1, 7] was 11.82. The Mortality [1, 8] was 8.37%, the Mortality [1, 9] was 10.64% and the “Activity of superoxide dismutase (SOD) in serum of sows” value (shortened to “Activity … of sows”) (sows and piglets; Breeding, Group 2: vitamin E 50/75 mg/kg diet) was 71.43 U/ml. For the same compound, the “Activity … of sows” value (sows and piglets; Breeding, Group 3: vitamin E 100/150 mg/kg diet) was 73.28 U/ml, the “Activity … of sows” value (sows and piglets; Farrowing, Group 2: vitamin E 50/75 mg/kg diet) was 77.14^B U/ml and the “Activity … of sows” value (sows and piglets; Farrowing, Group 3: vitamin E 100/150 mg/kg diet) was 79.60^AB U/ml. For the same compound, the “Activity … of sows” value (sows and piglets; Weaning, Group 2: vitamin E 50/75 mg/kg diet) was 79.50^C U/ml, the “Activity … of sows” value (sows and piglets; Weaning, Group 3: vitamin E 100/150 mg/kg diet) was 90.93^B U/ml and the “Activity of superoxide dismutase (SOD) in serum of piglets” value (sows and piglets; [8]) was 100.61^B U/ml. The “Activity of superoxide dismutase (SOD) in serum of piglets” value (sows and piglets; [9]) was 129.54^Ab U/ml, the “proportionality index for transfer of vitamin E from the diet to the egg” value ([2]; in vivo) was “around 50%” and the “ORAC of egg yolk” value ([2]; vitamin E equivalence 80 ppm) was 33.8 µmol TE/g. The “Vitamin E of egg yolk” value ([2]; vitamin E equivalence 80 ppm) was 139.7 µg […]tocoferol/g, the “ORAC of egg yolk” value ([2]; vitamin E equivalence 160 ppm) was 33.5 µmol TE/g and the “Vitamin E of egg yolk” value ([2]; vitamin E equivalence 160 ppm) was 231.6 µg […]tocoferol/g. The “start weight of the chickens” value ([3]; after placement in cages, day 0) was 40.9 g, the “F:G corrected for BW” value ([3]; corrected to 2,181 gram body weight at 35 days of age) was 1.627 and the “ADFI 0-3 d” value ([3]; offspring) was 10.1 g. The “ADFI 0-14 d” value ([3]; offspring) was 37.1 g, the “ADFI 0-28 d” value ([3]; offspring) was 82.1 g and the “ADFI 0-35 d” value ([3]; offspring) was 101.7 g. For the same compound, the “ADFI 3-14 d” value ([3]; offspring) was 44.5 g, the “ADFI 14-35” value ([3]; offspring) was 144.8 g and the “ADFI 14-28 d” value ([3]; offspring) was 127.0 g. The “ADFI 28-35 d” value ([3]; offspring) was 180.3 g, the “ADG 0-3 d” value ([3]; offspring) was 9.5 g and the “ADG 0-14 d” value ([3]; offspring) was 29.3 g. The “ADG 0-28 d” value ([3]; offspring) was 54.4 g, the “ADG 0-35 d” value ([3]; offspring) was 62.2 g and the “ADG 3-14 d” value ([3]; offspring) was 34.7 g. For the same compound, the “ADG 14-35” value ([3]; offspring) was 84.2 g, the “ADG 14-28 d” value ([3]; offspring) was 79.6 g and the “ADG 28-35 d” value ([3]; offspring) was 93.6 g. For the same compound, the “BW 0 d” value ([3]; offspring) was 40.9 g, the “BW 3 d” value ([3]; offspring) was 69.4 g and the “BW 14 d” value ([3]; offspring) was 451 g. For the same compound, the “BW 35 d” value ([3]; offspring) was 2219 g, the “F:G 0-14 d” value ([3]; offspring) was 1.268 and the “F:G 0-28 d” value ([3]; offspring) was 1.509. The “F:G 0-35 d” value ([3]; offspring) was 1.635, the “F:G 3-14 d” value ([3]; offspring) was 1.283 and the “F:G 14-28 d” value ([3]; offspring) was 1.598. The “F:G 14-35 d” value ([3]; offspring) was 1.720, the “F:G 28-35 d” value ([3]; offspring) was 1.929 and the EPI excl ([3]; offspring, 35 d) was 388. The “EPI, excl mortality” value ([3]; offspring, 35 d) was 369, the Mortality ([3]; offspring, breeder diet 80 ppm vitamin E or 40 ppm vitamin E+40 ppm PROVIOX 50) was 4.6% and the “F:G 0-3 d” value ([3]; offspring, kg feed intake:kg gain) was 1.088.

— patent publication US20170119020A1, “METHOD OF FEEDING AN ANIMAL” (CARGILL, INCORPORATED, priority 2014, published 2017)
